Patent publication US8609661B2, “Pyrimido-pyrrolo-quinoxalinedione inhibitors of cystic fibrosis transmembrane conductance regulator protein and uses therefor” (The Regents of the University of California, priority 2009, dated 2013)
Where two headings read alike, the source gives them in different places.

Target: T1, human wildtype CFTR (Homo sapiens, UniProt P13569)
T1 construct: expressed in transfected cells; host or cells: Fischer rat thyroid (FRT) cells
Experiment: Fluorescence platereader assay of CFTR-mediated iodide influx (YFP quenching) in FRT cells
Type: cell-based
Conditions: for inhibition at 5 µM / inhibition at 25 µM: FRT
Outline: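 Fischer rat thyroid cells co-expressing human wildtype CFTR and the YFP-H148Q/1152L halide sensor were seeded at 20,000 cells per well in 96-well black-walled plates and assayed 48 h later at confluence. After PBS washes and a 15 min incubation, CFTR was maximally activated with an agonist mixture. Fluorescence was recorded for 2 s before and 10 s after adding 160 μL iodide-substituted PBS, and iodide influx rates came from non-linear regression.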

[1] = Table 2, screening, 5 μM, read-out: % Inhibition at 5 μM
[2] = Table 2, screening, 25 μM, read-out: % Inhibition at 25 μM

T1 sequence (P13569 whole entry): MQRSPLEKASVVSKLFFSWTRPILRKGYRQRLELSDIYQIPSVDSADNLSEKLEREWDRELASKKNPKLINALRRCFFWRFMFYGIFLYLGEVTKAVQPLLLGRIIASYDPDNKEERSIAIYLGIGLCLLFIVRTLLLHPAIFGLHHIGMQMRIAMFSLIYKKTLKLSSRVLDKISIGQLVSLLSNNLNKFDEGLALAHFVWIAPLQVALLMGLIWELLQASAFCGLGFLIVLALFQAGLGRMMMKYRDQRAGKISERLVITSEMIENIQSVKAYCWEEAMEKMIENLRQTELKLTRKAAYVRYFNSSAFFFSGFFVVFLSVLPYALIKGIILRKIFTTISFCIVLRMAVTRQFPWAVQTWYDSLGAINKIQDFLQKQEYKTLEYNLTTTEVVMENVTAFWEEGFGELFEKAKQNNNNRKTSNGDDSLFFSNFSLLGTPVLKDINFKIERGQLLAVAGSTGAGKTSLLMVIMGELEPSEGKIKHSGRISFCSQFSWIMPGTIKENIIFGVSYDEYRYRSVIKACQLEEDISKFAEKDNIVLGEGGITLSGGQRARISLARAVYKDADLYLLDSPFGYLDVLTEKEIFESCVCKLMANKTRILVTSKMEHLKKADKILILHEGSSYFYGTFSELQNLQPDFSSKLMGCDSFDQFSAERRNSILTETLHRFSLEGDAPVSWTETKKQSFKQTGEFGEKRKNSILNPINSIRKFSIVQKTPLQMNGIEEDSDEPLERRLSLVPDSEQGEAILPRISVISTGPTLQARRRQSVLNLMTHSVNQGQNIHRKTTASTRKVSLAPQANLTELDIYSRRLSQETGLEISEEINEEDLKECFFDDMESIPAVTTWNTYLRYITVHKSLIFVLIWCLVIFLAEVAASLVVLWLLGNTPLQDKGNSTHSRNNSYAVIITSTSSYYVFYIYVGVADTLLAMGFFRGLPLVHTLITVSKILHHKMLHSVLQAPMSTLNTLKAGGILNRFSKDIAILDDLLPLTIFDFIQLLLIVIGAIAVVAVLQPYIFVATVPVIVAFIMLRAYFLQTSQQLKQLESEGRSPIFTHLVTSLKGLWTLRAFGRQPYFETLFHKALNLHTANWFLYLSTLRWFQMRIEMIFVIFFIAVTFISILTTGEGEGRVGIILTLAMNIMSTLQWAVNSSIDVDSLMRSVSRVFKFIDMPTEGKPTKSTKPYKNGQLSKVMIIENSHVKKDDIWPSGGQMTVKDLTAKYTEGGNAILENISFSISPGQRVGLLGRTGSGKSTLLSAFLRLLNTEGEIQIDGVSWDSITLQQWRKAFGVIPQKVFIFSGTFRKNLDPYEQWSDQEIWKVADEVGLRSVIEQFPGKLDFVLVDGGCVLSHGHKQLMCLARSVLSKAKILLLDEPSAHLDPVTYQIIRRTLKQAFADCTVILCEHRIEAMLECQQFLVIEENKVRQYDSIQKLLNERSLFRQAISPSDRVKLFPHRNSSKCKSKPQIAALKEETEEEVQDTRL

SMILES | inhibition at 5 µM (read-out: % inhibition at 25/5 μM (5 μM value), Table 1, 5 μM compound) [%] | inhibition at 25 µM (read-out: % inhibition at 25/5 μM (25 μM value), Table 1, 25 μM compound) [%] | inhibition at 5 µM [1] [%] | inhibition at 25 µM [2] [%] | IC50 (apparent IC50 from concentration-inhibition data, fluorescence platereader assay) [µM]
Cc1cccc(-c2c3c(=O)n(C)c(=O)n(C)c3c3n2-c2ccccc2NC3c2cccc(F)c2)c1 (centres unmarked) [PPQ-219, 7,9-Dimethyl-11-(3-methylphenyl)-6-(3-fluorophenyl)-5,6-dihydro-pyrimido[4′,5′-3,4]pyrrolo[1,2-a]quinoxaline-8,10-(7H,9H)-dione] | 53 | 93 | 53 | 93 | 8
Cc1ccc(-c2c3c(=O)n(C)c(=O)n(C)c3c3n2-c2ccccc2NC3c2ccc(C)cc2O)cc1 (centres unmarked) [PPQ-220, 7,9-Dimethyl-11-(4-methylphenyl)-6-(2-hydroxy-4-methylphenyl)-5,6-dihydro-pyrimido[4′,5′-3,4]pyrrolo[1,2-a]quinoxaline-8,10-(7H,9H)-dione] |  |  | < 10 | > 95 | 
Cc1ccccc1-c1c2c(=O)n(C)c(=O)n(C)c2c2n1-c1ccccc1NC2c1cccc(F)c1F (centres unmarked) [PPQ-221, 7,9-Dimethyl-11-(2-methylphenyl)-6-(2,3-difluorophenyl)-5,6-dihydro-pyrimido[4′,5′-3,4]pyrrolo[1,2-a]quinoxaline-8,10-(7H,9H)-dione] |  |  | 50 | > 95 | 
Cc1ccccc1-c1c2c(=O)n(C)c(=O)n(C)c2c2n1-c1ccccc1NC2c1ccc(O)cc1 (centres unmarked) [PPQ-222, 7,9-Dimethyl-11-(2-methylphenyl)-6-(4-hydroxyphenyl)-5,6-dihydro-pyrimido[4′,5′-3,4]pyrrolo[1,2-a]quinoxaline-8,10-(7H,9H)-dione] |  |  | 32 | 84 | 
Cc1cc2c(cc1C)-n1c(-c3ccccc3)c3c(=O)n(C)c(=O)n(C)c3c1C(c1cccc(O)c1)N2 (centres unmarked) [PPQ-223, 2,3,7,9-Tetramethyl-11-phenyl-6-(3-hydroxyphenyl)-5,6-dihydro-pyrimido[4′,5′-3,4]pyrrolo[1,2-a]quinoxaline-8,10-(7H,9H)-dione] |  |  | 36 | 92 | 
Cc1cc2c(cc1C)-n1c(-c3ccccc3)c3c(=O)n(C)c(=O)n(C)c3c1C(c1ccc(O)c(O)c1)N2 (centres unmarked) [PPQ-224, 2,3,7,9-Tetramethyl-11-phenyl-6-(3,4-dihydroxyphenyl)-5,6-dihydro-pyrimido[4′,5′-3,4]pyrrolo[1,2-a]quinoxaline-8,10-(7H,9H)-dione] |  |  | 24 | 82 | 
Cc1cccc(-c2c3c(=O)n(C)c(=O)n(C)c3c3n2-c2ccccc2NC3c2cccc([N+](=O)[O-])c2)c1 (centres unmarked) [PPQ-225, 7,9-Dimethyl-11-(3-methylphenyl)-6-(3-nitrophenyl)-5,6-dihydro-pyrimido[4′,5′-3,4]pyrrolo[1,2-a]quinoxaline-8,10-(7H,9H)-dione] |  |  | 61 | 94 | 
Cc1cc2c(cc1C)-n1c(-c3ccccc3)c3c(=O)n(C)c(=O)n(C)c3c1C(c1ccccc1)N2 (centres unmarked) [PPQ-226, 2,3,7,9-Tetramethyl-11-phenyl-6-phenyl-5,6-dihydro-pyrimido[4′,5′-3,4]pyrrolo[1,2-a]quinoxaline-8,10-(7H,9H)-dione] |  |  | 61 | 92 | 
COc1cc(C2Nc3ccccc3-n3c(-c4ccccc4C)c4c(=O)n(C)c(=O)n(C)c4c32)ccc1O (centres unmarked) [PPQ-227, 7,9-Dimethyl-11-(2-methylphenyl)-6-(3-methoxy-4-hydroxyphenyl)-5,6-dihydro-pyrimido[4′,5′-3,4]pyrrolo[1,2-a]quinoxaline-8,10-(7H,9H)-dione] |  |  | 10 | 78 | 
Cc1cccc(-c2c3c(=O)n(C)c(=O)n(C)c3c3n2-c2ccccc2NC3c2cccc(O)c2)c1 (centres unmarked) [PPQ-228, 7,9-Dimethyl-11-(3-methylphenyl)-6-(3-hydroxyphenyl)-5,6-dihydro-pyrimido[4′,5′-3,4]pyrrolo[1,2-a]quinoxaline-8,10-(7H,9H)-dione] |  |  | 30 | 83 | 
